Experimental data as given in ChEMBL document CHEMBL5113525, “Discovery of the Novel 1H-Pyrrolo[2,3-b]pyridine Derivative as a Potent Type II CDK8 Inhibitor against Colorectal Cancer” (J Med Chem, 2022).
Activity calls are given as the source filed them. No cut-off for these calls is given here.

Legend:
[1] = molecular target: Phosphatidylinositol 4-phosphate 3-kinase C2 domain-containing subunit alpha (Homo sapiens) (UniProt O00443); experiment: Inhibition of human PI3K-C2-alpha at 1 uM relative to control
[2] = molecular target: Fibroblast growth factor receptor 4 (Homo sapiens) (UniProt P22455); experiment: Inhibition of human FGFR4 at 1 uM relative to control
[3] = Cmax in Sprague-Dawley rat at 5 mg/kg, iv measured upto 12 hrs by LC-MS/MS analysis; format: ADME, organism-based; parameters: dose 5 mg/kg, time < 12 hrs, route iv; conditions: in vivo
[4] = molecular target: Serine/threonine-protein kinase pim-1 (Homo sapiens) (UniProt P11309); experiment: Inhibition of human PIM1 at 1 uM relative to control
[5] = molecular target: Fibroblast growth factor receptor 1 (Homo sapiens) (UniProt P11362); experiment: Inhibition of human FGFR1 at 1 uM relative to control
[6] = Tmax in Sprague-Dawley rat at 10 mg/kg, po measured upto 12 hrs by LC-MS/MS analysis; format: ADME, organism-based; conditions: in vivo
[7] = molecular target: Tyrosine-protein kinase receptor UFO (Homo sapiens) (UniProt P30530); experiment: Inhibition of human AXL at 1 uM relative to control
[8] = AUC(0 to infinity) in Sprague-Dawley rat at 5 mg/kg, iv measured upto 12 hrs by LC-MS/MS analysis; format: ADME, organism-based; parameters: time < 12 hrs, dose 5 mg/kg, route iv; conditions: in vivo
[9] = Half life in Sprague-Dawley rat at 10 mg/kg, po measured upto 12 hrs by LC-MS/MS analysis; format: ADME, organism-based; conditions: in vivo
[10] = molecular target: Tyrosine-protein kinase Mer (Homo sapiens) (UniProt Q12866); experiment: Inhibition of human MER at 1 uM relative to control
[11] = molecular target: Glycogen synthase kinase-3 beta (Homo sapiens) (UniProt P49841); experiment: Inhibition of human GSK3B at 1 uM relative to control
[12] = molecular target: Epidermal growth factor receptor (Homo sapiens) (UniProt P00533); experiment: Inhibition of human EGFR at 1 uM relative to control
[13] = molecular target: LIM domain kinase 1 (Homo sapiens) (UniProt P53667); experiment: Inhibition of human LIMK1 at 1 uM relative to control
[14] = molecular target: Serine/threonine-protein kinase B-raf (Homo sapiens) (UniProt P15056); experiment: Inhibition of human BRAF at 1 uM relative to control
[15] = molecular target: Mitogen-activated protein kinase 8 (Homo sapiens) (UniProt P45983); experiment: Inhibition of human JNK1-alpha-1 at 1 uM relative to control
[16] = molecular target: BDNF/NT-3 growth factors receptor (Homo sapiens) (UniProt Q16620); experiment: Inhibition of human TRKB at 1 uM relative to control
[17] = AUC(0 to infinity) in Sprague-Dawley rat at 10 mg/kg, po measured upto 12 hrs by LC-MS/MS analysis; format: ADME, organism-based; parameters: dose 10 mg/kg, time < 12 hrs, route po; conditions: in vivo
[18] = molecular target: Mitogen-activated protein kinase 8 (Homo sapiens) (UniProt P45983); experiment: Inhibition of human JNK1-alpha-2 at 1 uM relative to control
[19] = MRT in Sprague-Dawley rat at 10 mg/kg, po measured upto 12 hrs by LC-MS/MS analysis; format: ADME, organism-based; conditions: in vivo
[20] = molecular target: MAP kinase-interacting serine/threonine-protein kinase 2 (Homo sapiens) (UniProt Q9HBH9); experiment: Inhibition of human MNK2 at 1 uM relative to control
[21] = molecular target: Serine/threonine-protein kinase NLK (Homo sapiens) (UniProt Q9UBE8); experiment: Inhibition of human NLK at 1 uM relative to control
[22] = molecular target: Hepatocyte growth factor receptor (Homo sapiens) (UniProt P08581); experiment: Inhibition of human MET at 1 uM relative to control
[23] = Cmax in Sprague-Dawley rat at 10 mg/kg, po measured upto 12 hrs by LC-MS/MS analysis; format: ADME, organism-based; parameters: time < 12 hrs, dose 10 mg/kg, route po; conditions: in vivo
[24] = molecular target: Dual specificity protein kinase CLK2 (Homo sapiens) (UniProt P49760); experiment: Inhibition of human CLK2 at 1 uM relative to control
[25] = Clearance in Sprague-Dawley rat at 5 mg/kg, iv measured upto 12 hrs by LC-MS/MS analysis; format: ADME, organism-based; conditions: in vivo
[26] = molecular target: Catenin beta-1 (Homo sapiens) (UniProt P35222); experiment: Inhibition of beta-catenin in human HCT-116 cells assessed as accumulation in cytoplasm incubated for 24 hrs by DAPI staining based immunofluorescence assay; format: cell-based
[27] = molecular target: Tyrosine-protein kinase Lck (Homo sapiens) (UniProt P06239); experiment: Inhibition of human LCK at 1 uM relative to control
[28] = molecular target: Tyrosine-protein kinase JAK3 (Homo sapiens) (UniProt P52333); experiment: Inhibition of human JAK3 at 1 uM relative to control
[29] = MRT in Sprague-Dawley rat at 5 mg/kg, iv measured upto 12 hrs by LC-MS/MS analysis; format: ADME, organism-based; conditions: in vivo
[30] = molecular target: Serine/threonine-protein kinase pim-2 (Homo sapiens) (UniProt Q9P1W9); experiment: Inhibition of human PIM2 at 1 uM relative to control
[31] = molecular target: Mitogen-activated protein kinase 10 (Homo sapiens) (UniProt P53779); experiment: Inhibition of human JNK3 at 1 uM relative to control
[32] = molecular target: Mitogen-activated protein kinase kinase kinase 21 (Homo sapiens) (UniProt Q5TCX8); experiment: Inhibition of human MLK4 at 1 uM relative to control
[33] = molecular target: Cyclin-dependent kinase 8 (Mus musculus) (UniProt Q8R3L8); experiment: Inhibition of CDK8 in mouse BMDC cells assessed as reduction in IFNgamma-induced STAT1 phosphorylation at S727 residue pretreated with IFNgamma for 2 hrs followed by compound treatment for 24 hrs by Western blot assay; format: cell-based
[34] = molecular target: High affinity nerve growth factor receptor (Homo sapiens) (UniProt P04629); experiment: Inhibition of human TRKA at 1 uM relative to control
[35] = molecular target: 3-phosphoinositide-dependent protein kinase 1 (Homo sapiens) (UniProt O15530); experiment: Inhibition of human PDK1 at 1 uM relative to control
[36] = molecular target: Tyrosine-protein kinase JAK1 (Homo sapiens) (UniProt P23458); experiment: Inhibition of human JAK1 at 1 uM relative to control
[37] = molecular target: Aurora kinase C (Homo sapiens) (UniProt Q9UQB9); experiment: Inhibition of human Aurora C at 1 uM relative to control
[38] = molecular target: Dual specificity protein kinase CLK4 (Homo sapiens) (UniProt Q9HAZ1); experiment: Inhibition of human CLK4 at 1 uM relative to control
[39] = molecular target: Tyrosine-protein kinase Lyn (Homo sapiens) (UniProt P07948); experiment: Inhibition of human LYN at 1 uM relative to control
[40] = molecular target: Fibroblast growth factor receptor 2 (Homo sapiens) (UniProt P21802); experiment: Inhibition of human FGFR2 at 1 uM relative to control
[41] = Clearance in Sprague-Dawley rat at 10 mg/kg, po measured upto 12 hrs by LC-MS/MS analysis; format: ADME, organism-based; conditions: in vivo
[42] = molecular target: Serine/threonine-protein kinase PAK 1 (Homo sapiens) (UniProt Q13153); experiment: Inhibition of human PAK1 at 1 uM relative to control
[43] = Oral bioavailability in Sprague-Dawley rat at 10 mg/kg measured upto 12 hrs by LC-MS/MS analysis; format: ADME, organism-based; conditions: in vivo

Chain of Mitogen-activated protein kinase 8 (Homo sapiens) (P45983 whole entry): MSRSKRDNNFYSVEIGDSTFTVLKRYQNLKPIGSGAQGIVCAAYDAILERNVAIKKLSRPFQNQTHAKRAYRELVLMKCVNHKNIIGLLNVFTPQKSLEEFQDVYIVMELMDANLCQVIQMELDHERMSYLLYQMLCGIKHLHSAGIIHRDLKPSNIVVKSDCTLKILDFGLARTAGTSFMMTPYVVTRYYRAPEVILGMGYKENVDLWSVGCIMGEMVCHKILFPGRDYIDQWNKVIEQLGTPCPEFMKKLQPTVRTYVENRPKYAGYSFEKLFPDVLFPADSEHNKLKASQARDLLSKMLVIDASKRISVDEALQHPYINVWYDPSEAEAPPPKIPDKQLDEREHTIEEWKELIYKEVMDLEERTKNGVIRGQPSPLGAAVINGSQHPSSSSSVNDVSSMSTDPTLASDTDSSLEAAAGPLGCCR
Chain of Fibroblast growth factor receptor 2 (Homo sapiens) (P21802 22-821 limits assumed): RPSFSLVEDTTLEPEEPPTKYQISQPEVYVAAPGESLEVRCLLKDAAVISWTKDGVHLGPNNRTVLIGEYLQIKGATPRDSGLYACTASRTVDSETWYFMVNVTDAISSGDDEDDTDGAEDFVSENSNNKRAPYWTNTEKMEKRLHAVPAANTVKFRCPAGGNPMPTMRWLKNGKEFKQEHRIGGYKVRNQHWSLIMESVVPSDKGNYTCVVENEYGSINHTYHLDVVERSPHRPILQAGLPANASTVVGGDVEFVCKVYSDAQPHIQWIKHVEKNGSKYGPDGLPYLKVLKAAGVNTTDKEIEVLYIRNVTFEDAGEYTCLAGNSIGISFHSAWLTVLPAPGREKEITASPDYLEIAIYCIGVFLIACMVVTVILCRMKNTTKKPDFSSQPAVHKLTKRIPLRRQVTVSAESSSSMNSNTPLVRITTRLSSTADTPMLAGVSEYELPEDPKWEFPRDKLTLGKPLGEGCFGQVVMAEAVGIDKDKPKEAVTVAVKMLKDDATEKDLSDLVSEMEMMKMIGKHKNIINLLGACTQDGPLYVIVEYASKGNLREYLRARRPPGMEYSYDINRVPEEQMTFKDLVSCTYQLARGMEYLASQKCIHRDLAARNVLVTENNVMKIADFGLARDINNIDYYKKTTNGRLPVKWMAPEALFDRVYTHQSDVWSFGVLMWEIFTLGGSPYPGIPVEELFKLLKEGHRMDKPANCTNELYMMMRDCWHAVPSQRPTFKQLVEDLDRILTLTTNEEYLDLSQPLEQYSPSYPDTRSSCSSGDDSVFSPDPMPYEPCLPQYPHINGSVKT
Chain of Dual specificity protein kinase CLK2 (Homo sapiens) (P49760 whole entry, looked up): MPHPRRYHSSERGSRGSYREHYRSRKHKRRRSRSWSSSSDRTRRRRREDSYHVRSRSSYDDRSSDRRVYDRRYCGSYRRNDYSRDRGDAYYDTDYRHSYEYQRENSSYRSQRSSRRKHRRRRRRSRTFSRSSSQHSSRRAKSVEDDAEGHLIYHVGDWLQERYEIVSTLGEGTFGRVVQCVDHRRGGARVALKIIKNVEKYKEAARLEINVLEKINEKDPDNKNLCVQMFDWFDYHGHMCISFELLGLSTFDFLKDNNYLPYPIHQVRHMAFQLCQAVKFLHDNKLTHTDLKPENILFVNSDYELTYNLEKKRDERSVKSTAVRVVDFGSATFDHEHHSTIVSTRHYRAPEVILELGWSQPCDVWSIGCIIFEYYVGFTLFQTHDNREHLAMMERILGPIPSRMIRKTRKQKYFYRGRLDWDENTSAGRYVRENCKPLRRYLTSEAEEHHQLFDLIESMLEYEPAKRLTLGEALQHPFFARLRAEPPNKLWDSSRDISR
Chain of LIM domain kinase 1 (Homo sapiens) (P53667 whole entry, looked up, the tested form may be a part): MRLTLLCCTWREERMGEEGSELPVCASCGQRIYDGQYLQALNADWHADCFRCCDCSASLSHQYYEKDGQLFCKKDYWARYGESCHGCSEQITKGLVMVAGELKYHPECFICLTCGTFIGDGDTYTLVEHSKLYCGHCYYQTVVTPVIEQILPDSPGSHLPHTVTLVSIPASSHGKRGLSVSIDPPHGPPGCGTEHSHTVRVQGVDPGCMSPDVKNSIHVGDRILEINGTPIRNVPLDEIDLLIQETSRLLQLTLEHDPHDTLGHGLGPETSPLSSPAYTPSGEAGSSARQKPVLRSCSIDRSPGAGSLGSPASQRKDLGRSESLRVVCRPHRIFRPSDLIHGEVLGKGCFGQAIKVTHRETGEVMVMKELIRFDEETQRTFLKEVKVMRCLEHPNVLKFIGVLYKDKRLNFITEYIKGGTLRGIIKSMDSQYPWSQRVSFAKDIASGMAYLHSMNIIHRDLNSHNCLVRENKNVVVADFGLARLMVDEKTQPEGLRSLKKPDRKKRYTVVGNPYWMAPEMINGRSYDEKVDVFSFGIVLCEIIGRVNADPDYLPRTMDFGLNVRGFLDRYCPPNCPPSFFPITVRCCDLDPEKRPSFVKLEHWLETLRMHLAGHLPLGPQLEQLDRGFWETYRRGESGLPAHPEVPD
Chain of BDNF/NT-3 growth factors receptor (Homo sapiens) (Q16620 32-822 limits assumed): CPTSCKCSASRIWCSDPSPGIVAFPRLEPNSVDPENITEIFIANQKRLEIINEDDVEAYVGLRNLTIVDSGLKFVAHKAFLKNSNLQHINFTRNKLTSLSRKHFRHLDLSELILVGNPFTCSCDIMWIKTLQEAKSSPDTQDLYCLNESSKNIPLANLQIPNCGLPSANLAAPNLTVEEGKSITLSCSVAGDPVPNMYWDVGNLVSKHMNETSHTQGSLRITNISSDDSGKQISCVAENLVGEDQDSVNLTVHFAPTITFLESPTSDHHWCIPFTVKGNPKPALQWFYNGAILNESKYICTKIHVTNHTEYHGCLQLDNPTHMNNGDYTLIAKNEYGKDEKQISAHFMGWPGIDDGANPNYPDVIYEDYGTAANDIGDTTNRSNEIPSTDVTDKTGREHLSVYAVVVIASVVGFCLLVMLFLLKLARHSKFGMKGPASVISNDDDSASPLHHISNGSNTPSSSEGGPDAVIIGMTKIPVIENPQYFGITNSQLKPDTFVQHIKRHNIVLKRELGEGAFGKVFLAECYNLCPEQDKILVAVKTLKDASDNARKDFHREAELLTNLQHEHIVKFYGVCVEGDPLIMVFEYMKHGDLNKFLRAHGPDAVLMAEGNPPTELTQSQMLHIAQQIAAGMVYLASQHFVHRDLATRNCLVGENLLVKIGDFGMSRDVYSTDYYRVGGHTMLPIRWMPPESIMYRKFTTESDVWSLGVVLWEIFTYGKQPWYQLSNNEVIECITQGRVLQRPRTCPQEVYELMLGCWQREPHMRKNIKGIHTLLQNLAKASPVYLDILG
Chain of MAP kinase-interacting serine/threonine-protein kinase 2 (Homo sapiens) (Q9HBH9 whole entry, looked up): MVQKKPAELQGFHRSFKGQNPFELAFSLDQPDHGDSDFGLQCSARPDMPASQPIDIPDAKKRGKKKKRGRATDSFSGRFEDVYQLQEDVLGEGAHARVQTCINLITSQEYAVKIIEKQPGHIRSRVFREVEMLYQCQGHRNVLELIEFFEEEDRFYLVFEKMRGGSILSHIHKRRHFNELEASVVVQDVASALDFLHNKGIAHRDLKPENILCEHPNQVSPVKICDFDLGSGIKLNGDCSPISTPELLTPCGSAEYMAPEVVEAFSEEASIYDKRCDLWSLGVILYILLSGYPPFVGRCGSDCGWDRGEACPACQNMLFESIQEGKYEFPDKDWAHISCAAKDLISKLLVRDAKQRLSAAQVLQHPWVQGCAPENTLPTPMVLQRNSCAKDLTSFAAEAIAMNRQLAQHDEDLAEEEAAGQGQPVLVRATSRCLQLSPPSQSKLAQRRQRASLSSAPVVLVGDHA
Chain of Tyrosine-protein kinase JAK3 (Homo sapiens) (P52333 whole entry): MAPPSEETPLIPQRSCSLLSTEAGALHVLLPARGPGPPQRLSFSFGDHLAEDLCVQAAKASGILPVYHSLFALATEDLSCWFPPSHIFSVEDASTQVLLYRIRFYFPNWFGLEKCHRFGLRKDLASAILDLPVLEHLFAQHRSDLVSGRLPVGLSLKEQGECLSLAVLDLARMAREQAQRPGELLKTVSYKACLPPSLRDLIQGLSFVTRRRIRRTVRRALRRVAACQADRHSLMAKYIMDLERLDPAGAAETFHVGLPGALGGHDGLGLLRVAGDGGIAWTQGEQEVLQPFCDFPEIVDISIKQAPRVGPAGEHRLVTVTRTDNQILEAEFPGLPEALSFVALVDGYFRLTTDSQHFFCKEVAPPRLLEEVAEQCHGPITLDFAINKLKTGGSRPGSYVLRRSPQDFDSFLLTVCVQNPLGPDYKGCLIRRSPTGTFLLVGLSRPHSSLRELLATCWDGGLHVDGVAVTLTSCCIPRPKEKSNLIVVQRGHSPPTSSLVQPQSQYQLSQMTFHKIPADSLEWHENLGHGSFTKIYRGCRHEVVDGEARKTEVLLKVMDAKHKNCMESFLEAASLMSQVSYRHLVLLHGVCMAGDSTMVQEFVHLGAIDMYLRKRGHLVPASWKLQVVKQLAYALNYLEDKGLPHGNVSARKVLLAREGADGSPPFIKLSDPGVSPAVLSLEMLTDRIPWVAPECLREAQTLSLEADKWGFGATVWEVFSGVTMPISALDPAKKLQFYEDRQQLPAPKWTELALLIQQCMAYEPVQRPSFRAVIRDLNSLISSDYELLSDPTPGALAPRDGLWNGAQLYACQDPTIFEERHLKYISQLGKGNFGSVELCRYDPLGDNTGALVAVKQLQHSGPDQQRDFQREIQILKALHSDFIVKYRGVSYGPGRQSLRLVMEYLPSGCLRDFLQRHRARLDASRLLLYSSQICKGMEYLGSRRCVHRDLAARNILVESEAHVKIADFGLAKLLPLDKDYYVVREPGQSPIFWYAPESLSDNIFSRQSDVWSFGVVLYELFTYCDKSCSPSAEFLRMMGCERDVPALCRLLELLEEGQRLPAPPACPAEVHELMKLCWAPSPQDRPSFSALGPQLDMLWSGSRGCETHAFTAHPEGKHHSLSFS

## Cc1ccc(NC(=O)CCc2cccc(-c3cnc4[nH]ccc4c3)c2)cc1C(F)(F)F
[1]
  inhibition: 1%
[2]
  inhibition: 0%
[3]
  Cmax: 706 ng/mL
[4]
  inhibition: 0%
[5]
  inhibition: 0%
[6]
  Tmax: 0.75 h
[7]
  inhibition: 38%
[8]
  AUC: 983.09 ng·h/mL
[9]
  half-life: 1.21 h
[10]
  inhibition: 30%
[11]
  inhibition: 0%
[12]
  inhibition: 0%
[13]
  inhibition: 6%
[14]
  inhibition: 15%
[15]
  inhibition: 2%
[16]
  inhibition: 24%
[17]
  AUC(0-inf): 784 ng·h/mL
[18]
  inhibition: 0%
[19]
  MRT: 2.02 h
[20]
  inhibition: 10%
[21]
  inhibition: 0%
[22]
  inhibition: 0%
[23]
  Cmax: 498 ng/mL
[24]
  inhibition: 9%
[25]
  CL: 188.7 mL/min/kg
[26]
  inhibition: Active
[27]
  inhibition: 0%
[28]
  inhibition: 10%
[29]
  MRT: 1.76 h
[30]
  inhibition: 0%
[31]
  inhibition: 8%
[32]
  inhibition: 0%
[33]
  inhibition: Active
[34]
  inhibition: 25%
[35]
  inhibition: 0%
[36]
  inhibition: 9%
[37]
  inhibition: 8%
[38]
  inhibition: 6%
[39]
  inhibition: 0%
[40]
  inhibition: 0%
[41]
  CL/F: 154 mL/min/kg
[42]
  inhibition: 0%
[43]
  bioavailability: 39.8%
